Experimental data published in article PMC12700902 (Communications Biology, 2025).
Values joined by “and” are separate entries in the source; they are usually repeats but may differ in a detail not shown here. Identical values can stand only once. “Also recorded” adds a separate entry of the source. Like-named read-outs stand apart in the source and are kept apart here.

Tests used:
[1] = target: A. mellifera α5 nAChR (Apis mellifera, UniProt A0A0H3V1C5); test: Two-electrode voltage clamp of X. laevis oocytes expressing the A. mellifera α5 nAChR (wild-type); assay type: cell-based; settings: for normalised current response (Fig. 1c source data): single oocytes, normalised to maximal concentration of Fig. 1b
Protocol: (§1) Oocytes were mainly obtained either from Ecocyte (https://ecocyte-us.com/products/xenopus-oocyte-delivery-service/), which arrived ready for injection, or from the European Xenopus Resource Centre (https://xenopusresource.org/resources) as ovarian sections. In the latter case, oocytes were either prepared for injection by incubation in collagenase type I in OR2 (sodium chloride 82 mM, potassium chloride 2 mM, magnesium chloride 2 mM, HEPES 5 mM, pH 7.6) at 2 mg/ml for 45 min at room temperature and shaking at 150 RPM[19] or by manual defolliculation followed by incubation with 0.5 mg/ml collagenase type I in OR2 for 6 min at room temperature at 150 RPM. Oocyte nuclei were injected with 23 nl of A. mellifera α5 DNA cloned into the pCI vector[19] […] Mutant A. mellifera α5 subunits (in pCI) were injected at 100–500 ng/µl. […] Oocytes were clamped at −80 mV and responses were recorded on a flatbed chart recorder (Kipp and Zonen BD-11E, Delft, The Netherlands). The oocytes were continuously perfused with SOS at a flow rate of 10 ml/min. Oocytes were selected for experiments if responses were consistent for two or more applications of the normalising concentration of agonist. Test chemicals were applied at 3 min intervals. Agonist concentration response curves were created by measuring the response of the oocytes to different agonist concentrations in SOS, responses were normalised to the maximal response induced by the agonist. Amitraz (10 mM) was dissolved in DMSO and then at a working concentration in 1:1000 ratio in SOS. All other chemicals were either dissolved in distilled water to make frozen stocks (100 mM) or dissolved directly in SOS (10 mM) on the day of use. […] Oocytes were clamped at voltages ranging between −100 and +40 mV to determine the current voltage relationship.
Concentration-response data were fitted with the Hill equation: y=Imax/1/EC50/agonist^nH where y is the normalised current amplitude, Imax is the maximal response Imax/Iagonistmax , EC50 is the agonist concentration at half-maximal efficacy, [agonist] is the agonist concentration and nH is the Hill coefficient, to estimate the EC50 and Hill coefficient. Curve fitting was carried out using GraphPad software version 10 (GraphPad Software, La Jolla, CA, United States). […] The peak of the current responses was normalised to the agonist concentration that gave a maximal response. Error bars on graphs show standard error, ‘n’ indicates the number of experiments and ‘batch’ indicates the number of frogs these oocytes came from. Values are shown as mean ± 95% confidence limits.

[2] = test system: α5 subunit of D. melanogaster; settings: homomeric receptor; cited from earlier work
[3] = test system: X. laevis oocytes injected with water only; test: Oocytes injected with water only; assay type: cell-based, Xenopus laevis
Protocol: as §1

[4] = read-out: Maximum response relative to 5 mM ACh (%)
[5] = 1 mM, applied 3 min after 5 mM ACh
[6] = Table 1 series, mean (95% confidence limits)
[7] = Table 1 series, oocytes clamped at −80 mV, mean (95% confidence limits), read-out: EC50

Sequence of A. mellifera α5 nAChR (A0A0H3V1C5 entry or part of it): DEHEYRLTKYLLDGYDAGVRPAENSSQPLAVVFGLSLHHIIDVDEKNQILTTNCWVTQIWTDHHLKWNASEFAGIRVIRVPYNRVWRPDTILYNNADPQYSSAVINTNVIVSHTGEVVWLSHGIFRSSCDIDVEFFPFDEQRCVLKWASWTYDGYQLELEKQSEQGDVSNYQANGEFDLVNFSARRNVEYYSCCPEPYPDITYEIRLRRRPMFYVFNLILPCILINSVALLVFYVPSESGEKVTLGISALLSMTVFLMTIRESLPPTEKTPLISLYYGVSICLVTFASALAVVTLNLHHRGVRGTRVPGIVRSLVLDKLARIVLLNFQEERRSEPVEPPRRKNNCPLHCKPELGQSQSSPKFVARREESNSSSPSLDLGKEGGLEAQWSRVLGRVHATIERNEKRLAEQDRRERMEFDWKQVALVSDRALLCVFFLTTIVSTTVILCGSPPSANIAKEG

Compound: α-bungarotoxin
- antagonist action on ACh response [1]: antagonistic actions
- washing time after which response to 2 mM ACh was restored [1]: 26 min

Compound: CC(=O)OCC[N+](C)(C)C [Acetylcholine, acetylcholine]
- EC50 [2]: 8.8 µM
- Hill coefficient [1]: 2.304 (1.886–2.721)
- effect of absence of Na+ on agonist response [1]: eliminated the response
- response on co-application [1]: synergistic agonism
- response when applied alone [1]: did not induce detectable responses
- shape of concentration response curve [1]: biphasic concentration response curve
- Emax [1, 4]: 100%

Compound: NCCCC(=O)O [GABA, γ-aminobutyric acid]
- agonist response [1, 5]: none of them were able to induce detectable responses; also recorded: no agonist actions

Compound: C[N+](C)(C)CCO [Choline]
- Hill coefficient [1]: 2.043 (0.9065–3.180)
- EC50 ([1]; EC50): 9070 µM
- Emax [1, 4]: 100%

Compound: Cc1ccc(/N=C/N(C)/C=N/c2ccc(C)cc2C)c(C)c1 [amitraz]
- antagonist action ([1]; 10 µM coapplied with 400 µM octopamine): no antagonist actions; also recorded: nor antagonistic actions
- agonist action ([1]; 10 µM, applied 3 min after 5 mM ACh): no agonist actions; also recorded: did not show any agonist actions

Compound: NCCc1ccc(O)cc1 [Tyramine, tyramine]
- Hill coefficient [1, 6]: 1.918 (1.355–2.481)
- EC50 [1, 7]: 91.1 µM
- normalised current response (Fig. 1c source data) ([1]; log[Agonist] M -3): 1
- normalised current response (Fig. 1c source data) ([1]; log[Agonist] M -4, listed as TA): 0.538 and 0.456 and 0.597 and 0.416 and 0.62
- normalised current response (Fig. 1c source data) ([1]; log[Agonist] M -5): 0
- Emax at 1000 µM [1, 4]: 770%
- type of agonist action relative to ACh ([1]; wild-type): superagonists
- response of water-injected oocytes [3]: no tyramine and octopamine responses

Compound: N[C@@H](CCC(=O)O)C(=O)O [glutamate]
- agonist response [1, 5]: none of them were able to induce detectable responses; also recorded: no agonist actions

Compound: NCCc1ccc(O)c(O)c1 [Dopamine, dopamine]
- Hill coefficient [1]: 2.220 (1.585–2.855)
- effect of absence of Na+ on agonist response [1]: eliminated the response
- response on co-application [1]: synergistic agonism
- response when applied alone [1]: did not induce detectable responses
- response of water-injected oocytes [3]: no detectable response; also recorded: no responses were detected

Compound: NCC(=O)O [glycine]
- agonist response [1, 5]: none of them were able to induce detectable responses; also recorded: no agonist actions

Compound: NCC(O)c1ccc(O)cc1 (stereo not shown) [Octopamine, octopamine]
- Hill coefficient [1, 6]: 3.727 (2.998–4.455)
- EC50 [1, 7]: 378 µM
- normalised current response (Fig. 1c source data) ([1]; log[Agonist] M -2.22185, listed as OA): 1.1 and 0.809
- normalised current response (Fig. 1c source data) ([1]; log[Agonist] M -2.52288, listed as OA): 0.943 and 1.14 and 0.971 and 0.986 and 0.935 and 1.1
- normalised current response (Fig. 1c source data) ([1]; log[Agonist] M -3): 1
- normalised current response (Fig. 1c source data) ([1]; log[Agonist] M -3.22185, listed as OA): 0.892 and 0.674 and 0.971 and 0.901 and 1.01 and 0.859
- normalised current response (Fig. 1c source data) ([1]; log[Agonist] M -3.30103, listed as OA): 0.827 and 0.623
- normalised current response (Fig. 1c source data) ([1]; log[Agonist] M -3.52288, listed as OA): 0.284 and 0.276 and 0.462 and 0.451 and 0.389 and 0.232
- normalised current response (Fig. 1c source data) ([1]; log[Agonist] M -5): 0
- Emax at 1000 µM [1, 4]: 899%
- type of agonist action relative to ACh ([1]; wild-type): superagonists
- response of water-injected oocytes [3]: no tyramine and octopamine responses

Compound: NCCc1c[nH]c2ccc(O)cc12 [Serotonin]
- Hill coefficient [1, 6]: 3.419 (2.503–4.335)
- Emax [1, 4]: 238%

Compound: COc1cc(CCO)ccc1O [homovanillyl alcohol]
- agonist response ([1]; 100 μM or 1 mM): did not elicit a response; also recorded: no agonist actions

Compound: NCCc1c[nH]cn1 [Histamine, histamine]
- Hill coefficient [1]: 2.500 (1.050–3.950)
- type of agonist action relative to ACh [1]: partial agonist
- EC50 [1, 7]: 3360 µM
- Emax at 5000 µM [1, 4]: 45.3%
